Experimental data reported in US20240124503A1, “HETEROAROMATIC PHOSPHONIUM SALTS AND THEIR USE TREATING CANCER” (FLORATEK PHARMA S.A., priority 2021, published 2024).

Tests used:
Type in all cases: cell-based
colon PDX = assay: Cell viability, colon PDX (panel statement); settings: text summary of Table 7; read-out: IC50, growth of colon PDX
Description: (§1) PDX-derived cell cultures were obtained from tumors explanted from mice and isolated by mechanical and enzymatic dissociation. […] Cells were harvested and seeded in 96-wells plates at a density of 1.25 to 5×10^3 cells/well for cytotoxicity assays. Cells were incubated 48 h at 37° C. prior to addition of test molecules and vehicle (DMSO, 0.1%) at desired final concentrations. Cell viability was assessed before drugs' addition (To) and 5 days after test molecules addition by measuring ATP cell content using CellTiter-Glo® Luminescent Cell Viability Assay (Promega) according to the manufacturer's instructions. Luciferase activity was measured on a luminometer (PerkinElmer® EnVision™). Each concentration of compounds was tested in triplicate.
(§2) Viability was calculated as a percentage of ATP value compared to vehicle treated controls.
(§3) For PDX primary cell cultures, the tumour tissue was washed with PBS containing antibiotic-antimycotic and non-tumour tissue and necrotic tumour tissues were separated. The tumour tissue was transferred to a new dish and cut into 1˜2 mm^3 fragments, resuspended in RPMI-1640 medium and centrifuged at 1,200 rpm for 6 min at room temperature. The pelleted material was resuspended with 15 mL of Tumour Cell Digestion Solution and incubated at 37° C. for 1 hour with agitation. […]

Mia-Pa-Ca-2 = assay: Cell viability assay, Mia-Pa-Ca-2; settings: Homo sapiens, MIA PaCa-2; pancreatic carcinoma cell line Mia-Pa-Ca-2
Description: (§4) Antitumor activity of the compounds and doxorubicin as a positive control was assessed by using the CellTiter-Blue Cell Viability Assay (Promega, #G8082) or CellTiter-Glow® Luminescent Cell Viability assay (Promega #G7572) according to the manufacturer's instructions. The compounds were tested at 5 or 6 concentrations in half-log increments (highest concentration 30 μM or 100 μM) in duplicate or triplicate well conditions.
(§5) Tumor cells were grown at 37° C. in a humidified atmosphere with 5% CO2 in RPMI 1640 or DMEM medium, supplemented with 10% (v/v) fetal calf serum and 50 μg/ml gentamicin for up to 20 passages, and were passaged once or twice weekly. Cells were harvested using TrypLE or PBS buffer containing 1 mM EDTA, and the percentage of viable cells was determined using a CASY Model TI cell counter (OMNI Life Science). Cells were harvested from exponential phase cultures, counted and plated in 96 well flat-bottom microtiter plates at a cell density depending on the cell line's growth rate (4,000-20,000 cells/well depending on the cell line's growth rate, up to 60,000 for hematological cancer cell lines) in RPMI 1640 or DMEM medium supplemented with 10% (v/v) fetal calf serum and 50 μg/ml gentamicin (140 μl/well). […] Viability of cells was quantified by the CellTiter-Blue® cell viability assay (Promega G8081) or CellTiter-Glow® Luminescent Cell Viability assay (Promega #G7572). […]

HCC1806 = assay: Cell viability assay, HCC1806; settings: Homo sapiens; breast carcinoma cell line HCC1806
Description: as §4, §5

ovarian cancer cell = assay: Cell viability, ovarian cancer cells (panel statement); settings: Table 17; read-out: IC50, ovarian cancer cell growth
Description: as §4, §5

MDA-MB-436 = assay: Cell viability assay, MDA-MB-436; settings: Homo sapiens; breast carcinoma cell line MDA-MB-436
Description: as §4, §5

U-118 = assay: Cell viability assay, U-118; settings: brain carcinoma cell line U-118
Description: as §4, §5

pancreatic cancer cell = assay: Cell viability, pancreatic cancer cells (panel statement); settings: text summary of Tables 18A and 18B, read-out: IC50, pancreatic cancer cell growth
Description: as §4, §5

CALU-6 = assay: Cell viability assay, CALU-6; settings: Homo sapiens; lung carcinoma cell line CALU-6
Description: as §4, §5

stomach PDX = assay: Cell viability, stomach PDX (panel statement); settings: text summary of Table 22; read-out: IC50, stomach PDX growth
Description: as §1, §2, §3

lung PDX = assay: Cell viability, lung PDX (panel statement); settings: text summary of Table 15; read-out: IC50, lung PDX growth
Description: as §1, §2, §3

esophagus PDX = assay: Cell viability, esophagus PDX (panel statement); settings: text summary of Table 9; read-out: IC50, esophagus PDX growth
Description: as §1, §2, §3

SH-SY-5Y = assay: Cell viability assay, SH-SY-5Y; settings: Homo sapiens, SH-SY5Y; brain carcinoma cell line SH-SY-5Y
Description: as §4, §5

pancreatic PDX = assay: Cell viability, pancreatic PDX (panel statement); settings: Table 19; read-out: IC50, pancreatic PDX growth
Description: as §1, §2, §3

IC50 (Mia-Pa-Ca-2): 330 nM
IC50 (HCC1806): 2800 nM
IC50 (ovarian cancer cell): < 20000 nM
IC50 (MDA-MB-436): 2900 nM
IC50 (pancreatic cancer cell): < 20000 nM
IC50 (CALU-6): 2390 nM
IC50 (SH-SY-5Y): 2600 nM
Structure (SMILES): COc1c(O)ccc2c(=O)c(O)c(-c3ccc(CCCC[P+](c4ccccc4)(c4ccccc4)c4ccccc4)cc3)oc12 [SND190, (4-(4-(3,7-Dihydroxy-8-methoxy-4-oxo-4H1-chromen-2-yl)phenyl)butyl)triphenylphosphonium bromide]
IC50 (colon PDX): < 20000 nM
IC50 (U-118): 9400 nM
IC50 (stomach PDX): < 20000 nM
IC50 (lung PDX): < 20000 nM
IC50 (esophagus PDX): < 20000 nM
IC50 (pancreatic PDX): < 10000 nM
